Read-outs that look alike come from different tables or passages of the source. One block for each molecule: values may come before it.
How the values were obtained:
[1] = system: platelet phosphodiesterase; test: Inhibition of platelet phosphodiesterase activity (H3-cAMP hydrolysis); format: biochemical; conditions: 5 minutes at 30° C, platelet preparations
Procedure: The IC50 's for 2'-0-(4-benzoyl)benzoyl guanosine 3',5'cyclic monophosphate and 2'-0-(4-benzoyl)benzoyl cyclic adenosine monophosphate were 3 and 10 μM, repsectively. Enzyme activity was assayed by incubation of platelet preparations with H^3 -cAMP for 5 minutes at 30° C. Activity was quenched by boiling the assay tubes for 1 minute. Each sample was run in triplicate. Analysis of H^3 -cAMP was performed according to the procedure of W. J. Thompson, W. L. Terasaki, P. M. Epstein and S. J. Strada, "Assay of Cyclic Nucleotide Phosphodiesterase and Resolution of Multiple Molecular Forms of the Enzyme", Adv. in Cyclic Nucleotide Research, 10, 69-92 (1979).

cAMP PDE = test: Inhibition of cAMP phosphodiesterase in rat bladder; format: biochemical; conditions: read-out: IC50, concentration required to cause 50% inhibition of the enzyme
Procedure: (§1) 2'-0-(4-benzoyl)benzoyl guanosine 3',5' cyclic monophosphate was assayed as an inhibitor of the cGMP and cAMP phoosphodiesterases in rat bladder. The inhibition of the two PDEases were assayed as per J. N. Wells, C. E. Baird, Y. J. Wu and J. G. Hardman, Biochem. Biophys. Acta, 384, 430, (1975). Expressed as IC50 's, the concentration required to cause 50% inhibition of the enzynme were as follows: […]

intraocular pressure = test: Intraocular pressure in normal rabbits after topical administration; format: in vivo, rabbit
Text: Non-pigmented, normal (non-water-loaded) rabbits received topical administration to their eyes of 2'-0-(4)-benzoyl benzoyl guanosine 3',5'cyclic monophosphate as prepared according to Example 1.
The mean baseline IOP (intraocular pressure) for the rabbits was 17.5 mm Hg. It should be noted that the data presented in FIG. 1 and FIG. 2 are relative to time zero and normalized relative to the contralateral eye. The contralateral eye received a DMSO control lacking the inhibitor compound. It is believed that this is the most conservative way to represent the data.
Additionally, five rabbits were administered 2'-0-(4-benzoyl)benzoyl guanosine 3',5'cyclic monophosphate (and DMSO) in a sterile saline solution diluted 10- and 100-fold.
FIG. 1 depicts the results of increasing concentrations of 2'-0-(4-benzoyl)benzoyl guanosine 3',5' cyclic monophosphate on the intraocular pressure of normal rabbits. Pressures (±S.E.M) are relative to pressure at time zero and normalized with respect to that of the contralateral eye. Contralateral eyes received solutions containing (DMSO) vehicle without 2'-0-(4-benzoyl)benzoyl guanosine 3',5'cyclic monophosphate. […] Intraocular pressure was measured by applanation tonometry (using an Alcon Applanation Pneumotonograph) after topical application of proparacaine HCl […].

[2] = Storage stability in DMSO; format: physicochemical; conditions: stored at -20° C
Text: No preservative need be added.

cGMP PDE = test: Inhibition of cGMP phosphodiesterase in rat bladder; format: biochemical; conditions: read-out: IC50, concentration required to cause 50% inhibition of the enzyme
Procedure: as §1

eye = test: Ocular tolerability in rabbits after topical administration; format: in vivo, rabbit
Solubility in solvents = format: physicochemical; conditions: dmso, organic solvent or mixture; in water, ethanol or methanol and DSMO; read-out: upper limit of solubility
Procedure: The inventive compound favors organic solvents; the upper limit of solubility in water, ethanol or methanol and DSMO is approximately 100 mM. Butanol is also a good solvent, but probably not a very good vehicle.

[3] = target: Type III cGMP phosphodiesterase; test: Lineweaver-Burke analysis of cGMP hydrolysis by toad photoreceptor rod outer segment membranes; format: biochemical
Procedure: FIG. 7 depicts a Lineweaver-Burke analysis of inhibitory effectiveness of 2'-0-(4-benzoyl)benzoyl guanosine 3',5'cyclic monophosphate versus 8-Br-cGMP. The data illustrated are cGMP hydrolysis velocities from toad photoreceptor rod outer segment membranes containing 20 nM Type III cGMP phosphodiesterase in the presence of 100 mM NaCl, 1 mM Tris-HCl, 1 MgCl2,20 μM p[NH]ppG (guanylylimididiphosphate), pH 7.4, and the indicated concentrations of substrate. Open squares indicate control velocities. […] Open circles and open triangles show the effect of 2 μM and 20uM 2'-0-(4-benzoyl)benzoyl guanosine 3',5'cyclic monophosphate respectively (Ki =0.3 μM).

[4] = target: T1, Rod Light-Activated PDEase (Bos taurus, UniProt P11541+P23439)
T1 sequence (P11541 1-859): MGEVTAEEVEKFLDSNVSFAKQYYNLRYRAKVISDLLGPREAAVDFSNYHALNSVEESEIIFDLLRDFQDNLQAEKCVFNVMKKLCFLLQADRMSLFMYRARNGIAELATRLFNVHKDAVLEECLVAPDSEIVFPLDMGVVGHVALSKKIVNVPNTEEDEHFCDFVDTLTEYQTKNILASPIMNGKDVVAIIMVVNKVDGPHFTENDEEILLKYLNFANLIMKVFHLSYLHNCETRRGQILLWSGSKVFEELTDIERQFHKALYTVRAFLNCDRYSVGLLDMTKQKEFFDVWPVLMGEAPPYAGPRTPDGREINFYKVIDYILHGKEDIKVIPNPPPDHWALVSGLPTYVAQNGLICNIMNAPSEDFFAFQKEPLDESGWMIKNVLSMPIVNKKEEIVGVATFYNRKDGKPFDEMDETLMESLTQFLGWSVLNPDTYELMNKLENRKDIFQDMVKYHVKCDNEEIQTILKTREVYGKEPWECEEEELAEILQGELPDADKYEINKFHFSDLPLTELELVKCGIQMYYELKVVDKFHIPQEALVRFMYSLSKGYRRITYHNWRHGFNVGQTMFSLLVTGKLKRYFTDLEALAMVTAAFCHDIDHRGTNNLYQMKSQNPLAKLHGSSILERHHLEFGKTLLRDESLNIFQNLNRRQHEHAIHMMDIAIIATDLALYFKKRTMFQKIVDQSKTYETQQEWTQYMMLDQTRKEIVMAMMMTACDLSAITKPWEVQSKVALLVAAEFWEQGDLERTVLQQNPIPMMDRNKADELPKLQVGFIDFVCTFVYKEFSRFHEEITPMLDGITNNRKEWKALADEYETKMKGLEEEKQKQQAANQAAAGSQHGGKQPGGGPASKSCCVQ
T1 sequence (P23439 1-853): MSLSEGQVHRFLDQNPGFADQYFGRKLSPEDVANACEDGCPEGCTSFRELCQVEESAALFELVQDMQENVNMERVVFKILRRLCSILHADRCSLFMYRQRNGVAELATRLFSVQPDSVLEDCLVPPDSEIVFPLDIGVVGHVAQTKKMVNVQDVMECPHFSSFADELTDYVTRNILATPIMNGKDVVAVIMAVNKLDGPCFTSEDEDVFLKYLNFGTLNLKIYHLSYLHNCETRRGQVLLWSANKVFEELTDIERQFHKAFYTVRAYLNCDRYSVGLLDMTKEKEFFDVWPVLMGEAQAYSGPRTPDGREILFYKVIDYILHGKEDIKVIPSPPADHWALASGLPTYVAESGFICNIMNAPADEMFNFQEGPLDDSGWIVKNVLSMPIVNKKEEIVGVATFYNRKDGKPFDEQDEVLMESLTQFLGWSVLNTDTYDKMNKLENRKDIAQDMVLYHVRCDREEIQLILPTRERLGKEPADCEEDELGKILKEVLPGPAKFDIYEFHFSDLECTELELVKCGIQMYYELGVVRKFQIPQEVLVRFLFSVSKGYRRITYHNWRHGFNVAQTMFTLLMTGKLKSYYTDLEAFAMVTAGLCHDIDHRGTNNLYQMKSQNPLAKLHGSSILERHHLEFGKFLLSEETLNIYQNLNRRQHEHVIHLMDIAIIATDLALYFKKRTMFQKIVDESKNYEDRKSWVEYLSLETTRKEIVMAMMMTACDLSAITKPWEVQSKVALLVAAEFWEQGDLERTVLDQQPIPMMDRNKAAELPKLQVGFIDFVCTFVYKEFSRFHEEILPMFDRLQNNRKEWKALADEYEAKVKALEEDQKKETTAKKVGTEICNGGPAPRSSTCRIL

[5] = 20 nM enzyme, 100 mM NaCl, 20 μM p[NH]ppG, pH 7.4, Ki calculated from slope/Km ratios, read-out: Ki
[6] = footnote a: from Zimmerman et al 1985; read-out: Ki for Inhibition; cited from earlier work
[7] = footnote b: interpolated from Pannbacker et al 1972 and Chader et al 1974; read-out: Ki for Inhibition; cited from earlier work

IC50 [1]: 10 µM
SMILES: Nc1ncnc2c1ncn2[C@@H]1O[C@@H]2COP(=O)(O)O[C@H]2[C@H]1OC(=O)c1ccc(C(=O)c2ccccc2)cc1 [2'-0-(4-benzoyl) benzoyl-adenosine 3',5' cyclic monophosphate]

IC50 (cAMP PDE): 15.8 µM
stability in solution [2]: does not degrade
IC50 (cGMP PDE): 0.5 µM
solubility (Solubility in solvents): ~100 mM
Ki [3, 5]: 0.3 µM
Ki ([3]; Table 1, rod light-activated PDEase, inventive compound, read-out: Ki for Inhibition): 0.3 µM
IC50 [1]: 3 µM
SMILES: Nc1nc2c(ncn2[C@@H]2O[C@@H]3COP(=O)(O)O[C@H]3[C@H]2OC(=O)c2ccc(C(=O)c3ccccc3)cc2)c(=O)[nH]1 [2'-0-(4-benzoyl)benzoylguanosine 3',5'cyclic monophosphate]
effect on IOP (intraocular pressure; 10-fold diluted material (approximately 3 mM), compared with 35 mM in DMSO): about the same effect on IOP
effect on IOP (intraocular pressure; 100-fold diluted compound (approximately 0.3 mM)): essentially no effect
conjunctival hyperemia (eye; compound (and DMSO) diluted ten-fold with saline solution): reduced
change in pupil diameter (eye; either eye, any concentration, topical): No significant change in pupil diameter
conjunctival hyperemia (eye; full concentration (in straight DMSO)): slight conjunctival hyperemia
lid erythema or ciliary injection (eye; topical): no lid erythema or ciliary injection were observed

SMILES: Nc1nc2c(ncn2[C@H]2C[C@@H]3OP(=O)(O)OC[C@H]3O2)c(=O)[nH]1 [2'-Deoxy-cGMP]
Ki [4, 6]: 76 µM

SMILES: Nc1nc2c(ncn2[C@@H]2O[C@@H]3COP(O)(=S)O[C@H]3[C@H]2O)c(=O)[nH]1 (some centres unmarked) [(Rp)-cGMP [S]]
Ki [4, 6]: 90 µM

SMILES: Nc1nc2c(ncn2[C@@H]2O[C@@H]3COP(O)(=S)O[C@H]3[C@H]2O)c(=O)[nH]1 (some centres unmarked) [(Sp)-cGMP [S]]
Ki [4, 6]: 25 µM

Ki [3, 5]: 6 µM
SMILES: Nc1nc(O)c2nc(Br)n([C@@H]3O[C@@H]4COP(=O)(O)O[C@H]4[C@H]3O)c2n1 [Example 8-Br-cGMP, 8-Br-3',5' cyclic guanosine monophosphate, reference compound]
Ki [4, 6]: 48 µM

SMILES: CC(C)Cn1c(=O)n(C)c(=O)c2[nH]cnc21 [Isobutylmethylxanthine]
Ki ([4]; read-out: Ki for Inhibition; footnote b: interpolated from Pannbacker et al 1972 and Chader et al 1974; cited from earlier work): ~100 µM

SMILES: CCCC(=O)Nc1nc2c(ncn2[C@@H]2O[C@@H]3COP(=O)(O)O[C@H]3[C@H]2O)c(=O)[nH]1 [N^2 -monobutyryl-cGMP]
Ki [4, 6]: 258 µM

SMILES: CCCC(=O)Nc1nc2c(ncn2[C@@H]2O[C@@H]3COP(=O)(O)O[C@H]3[C@H]2OC(=O)CCC)c(=O)[nH]1 [N^2,O^2,-dibutyryl-cGMP]
Ki [4, 6]: 66 µM

SMILES: CCCC(=O)O[C@@H]1[C@@H]2OP(=O)(O)OC[C@H]2O[C@H]1n1cnc2c(=O)[nH]c(N)nc21 [O^2,-monobutyryl-cGMP]
Ki [4, 6]: 18 µM

SMILES: COc1ccc(Cc2nccc3cc(OC)c(OC)cc23)cc1OC [Papaverine]
Ki [4, 7]: ~50 µM

SMILES: Cn1c(=O)c2[nH]cnc2n(C)c1=O [Theophyline]
Ki [4, 7]: ~360 µM

SMILES: Nc1nc2c(ncn2[C@@H]2O[C@@H]3COP(=O)(O)O[C@H]3[C@H]2O)c(=O)[nH]1 [cGMP, 3',5'cyclic guanosine monophosphate]
Km ([4]; substrate cGMP; from Zimmerman et al 1985; read-out: Km (printed in column Ki for Inhibition); cited from earlier work): 0.04 mM

Source: patent publication US5039797A, “2'-O-(4-benzoyl)benzoyl nucleoside cyclic monophosphate” (Yale University, priority 1989, dated 1991)
